Reference: patent US20140262858A1, “PACKAGING FOR ALITRETINOIN” (RANBAXY LABORATORIES LIMITED, priority 2011, published 2014)
Several values for one entry are separate records, joined by “and”; a condition that tells them apart may be missing. Equal entries are not always repeated.

Tests used:
[1] = Stability study of alitretinoin at 40±2° C./75±5% RH in vacuum-sealed pack in the presence of oxygen absorber (Stabilox) and silica gel desiccant; format: physicochemical; design: 4-Hydroxy alitretinoin impurity / 5,6-Epoxy alitretinoin impurity / Total related substances / 4-Oxo-alitretinoin impurity: unit not given here; settings: for 4-Oxo-alitretinoin impurity / 5,6-Epoxy alitretinoin impurity / Total related substances / 4-Hydroxy alitretinoin impurity: with oxygen absorber and silica gel desiccant
Experimental: (§1) Stability studies of alitretinoin were conducted by loading alitretinoin samples at various stability conditions, for example, at 25±2° C./60±5% relative humidity (RH) and 40±2° C./75±5% RH in the absence or presence of an oxygen absorber and a silica desiccant for 1 month, 2 months, 3 months, or 6 months. The stability studies were performed on a stability incubator (for accelerated stability studies, Hotpack was used and for real time stability studies, NuAire® was used). The degradation products were identified using an Agilent® 1100 series HPLC system.
Alitretinoin was packed in a LDPE bag; the bag was twisted and tied with a plastic fastener under nitrogen. It was placed into a middle bag of polyester/LDPE along with an oxygen absorber. Vacuum was applied to the middle bag and then it was heat sealed. This sealed middle bag was packed into a polyester/aluminum/polyester/LDPE bag along with silica gel as a desiccant. Vacuum was applied to this bag and then it was heat sealed. The vacuum-sealed pack was loaded on stability at 40±2° C. and 75±5% RH.

[2] = Stability study of alitretinoin at 25±2° C./60±5% RH in vacuum-sealed pack in the presence of oxygen absorber (Stabilox) and silica gel desiccant; format: physicochemical; design: 4-Hydroxy alitretinoin impurity / 5,6-Epoxy alitretinoin impurity / Total related substances / 4-Oxo-alitretinoin impurity: unit not given here; settings: for 4-Hydroxy alitretinoin impurity / 4-Oxo-alitretinoin impurity / 5,6-Epoxy alitretinoin impurity / Total related substances: with oxygen absorber and silica gel desiccant
Experimental: as §1
Alitretinoin was packed in a LDPE bag. The bag was twisted and tied with a plastic fastener under nitrogen. The LDPE bag was placed into a middle bag of polyester/LDPE along with an oxygen absorber. A vacuum was applied to the middle bag and then it was heat sealed. The sealed middle bag was packed into a polyester/aluminum/polyester/LDPE bag along with silica gel as a desiccant. Vacuum was applied to this bag and it was then heat sealed. The vacuum-sealed pack was loaded on stability at 25±2° C. and 60±5% RH.

[3] = in the presence of oxygen; cited from earlier work
[4] = Stability study of alitretinoin in vacuum-sealed pack in the absence of oxygen absorber and silica gel desiccant (HPLC impurities); format: physicochemical; settings: Initial; no oxygen absorber, no silica gel desiccant
Experimental: as §1
Alitretinoin was packed in a LDPE bag. The bag was twisted and tied with a plastic fastener under nitrogen. The LDPE bag was placed into a middle bag of polyester/LDPE and vacuum was applied to the middle bag and then it was heat sealed. The sealed middle bag was packed into a polyester/aluminum/polyester/LDPE bag. Vacuum was applied to this bag and then it was heat sealed. The vacuum-sealed pack was loaded on stability at stations 40±2° C. and 75±5% RH (accelerated) and 25±2° C. and 60±5% RH.

## CC1=C(/C=C/C(C)=C\C=C\C(C)=C\C(=O)O)C(C)(C)CCC1 [Alitretinoin, (2E,4E,6Z,8E)-3,7-dimethyl-9-(2,6,6-trimethyl-1-cyclohexenyl)-2,4,6,8-nonatraenoic acid]
[1]; 1M/40 ± 2° C./75 ± 5% RH
  4-Oxo-alitretinoin impurity: 0.004 and 0.003
  5,6-Epoxy alitretinoin impurity: 0.008 and 0.006
  Total related substances: 0.173 and 0.182 and 0.160
[1]; 2M/40 ± 2° C./75 ± 5% RH
  4-Hydroxy alitretinoin impurity: 0.003 and 0.002 and 0.004
  4-Oxo-alitretinoin impurity: 0.003 and 0.002
  5,6-Epoxy alitretinoin impurity: 0.010 and 0.008 and 0.007
  Total related substances: 0.191 and 0.192 and 0.180
[1]; 3M/40 ± 2° C./75 ± 5% RH
  4-Hydroxy alitretinoin impurity: 0.003 and 0.002
  4-Oxo-alitretinoin impurity: 0.003 and 0.004
  5,6-Epoxy alitretinoin impurity: 0.008 and 0.010 and 0.006
  Total related substances: 0.192 and 0.205 and 0.177
[1]; 6M/40 ± 2° C./75 ± 5% RH
  4-Hydroxy alitretinoin impurity: 0.002
  4-Oxo-alitretinoin impurity: 0.003 and 0.004
  5,6-Epoxy alitretinoin impurity: 0.006 and 0.007
  Total related substances: 0.175 and 0.188 and 0.167
[1]; 40±2° C./75±5% RH (Table 3), in the presence of an oxygen absorber and a silica gel desiccant
  Change in oxidative impurities on storage: no increase in oxidative impurities
[1]; Initial
  4-Hydroxy alitretinoin impurity: 0.002
  4-Oxo-alitretinoin impurity: 0.002 and 0.003
  5,6-Epoxy alitretinoin impurity: 0.006 and 0.009
  Total related substances: 0.165 and 0.189 and 0.173
[2]; 3M/25 ± 2° C./60 ± 5% RH
  4-Hydroxy alitretinoin impurity: 0.003
  4-Oxo-alitretinoin impurity: 0.003 and 0.002
  5,6-Epoxy alitretinoin impurity: 0.008 and 0.005
  Total related substances: 0.198 and 0.195 and 0.179
[2]; 6M/25 ± 2° C./60 ± 5% RH
  4-Hydroxy alitretinoin impurity: 0.002 and 0.003
  4-Oxo-alitretinoin impurity: 0.004 and 0.003
  5,6-Epoxy alitretinoin impurity: 0.006 and 0.008 and 0.005
  Total related substances: 0.183 and 0.193 and 0.167
[2]; 25±2° C./60±5% RH (Table 2), in the presence of an oxygen absorber and a silica gel desiccant
  Change in oxidative impurities on storage: no increase in oxidative impurities
[2]; Initial
  4-Hydroxy alitretinoin impurity: 0.002
  4-Oxo-alitretinoin impurity: 0.002 and 0.003
  5,6-Epoxy alitretinoin impurity: 0.006 and 0.009
  Total related substances: 0.165 and 0.189 and 0.173
[3]
  Decomposition: decomposition was extensive
[4]
  Total related substances: 0.403 and 0.411 and 0.351
